How the values were obtained:
[1] = system: outer lateral muscle mass of the right leg; experiment: Local effect on normal muscle tissue, area of abnormal regions, nude mice; type: in vivo
Description: The animals were euthanized on the 7th day after drug administration, and the specimens of the outer lateral muscle mass of the right leg from the nude mice were taken out by autopsy, and the areas of abnormal regions different from normal muscles, such as of necrosis and nodules, were measured after sectioning and washing.
Each group was dosed once with an injection volume of 100 μl/mouse by administering to the outer lateral muscle mass of the right leg. On the 7th day after drug administration, the animals were euthanized, and the specimens of the outer lateral muscle mass of the right leg were taken out after dissection to perform a general pathological analysis. The sections were measured for the area of abnormal regions that distinguished from normal muscle, such as necrosis and nodules.

[2] = system: human pancreatic cancer cells (PANC-1); experiment: Tumor inhibition in PANC-1 tumor-bearing nude mice, administration volume study (Example 4, Table 6); type: in vivo; conditions: intratumoral once
Description: Nude mice were used as experimental subjects, and human pancreatic cancer cells (PANC-1) were used as modeling cells, 1×10^5 cells/mouse were injected into the right axilla subcutaneously for transplantation tumor modeling, and the average tumor volume of successfully modeled nude mice was 213.1 mm^3. The model animals were randomly divided into 16 groups, and the drugs were administered intratumorally according to the drug components and administration volumes in Table 6, and each group was administered once. The drugs in groups 1-12 were prepared according to the method of Example 1, wherein the inactivated probiotics were heat-inactivated Saccharomyces boulardii, the probiotic water-insoluble component particles were β-glucan particles, the probiotic water-soluble component was disrupted Saccharomyces boulardii supernatant component, and the mixture of the probiotic water-insoluble component particles and water-soluble component (abbreviated as probiotic component mixture) was disrupted Saccharomyces boulardii, preparation method used was the same as that of Example 3. On the 7th day after drug administration, the animals were euthanized, and the tumor tissues were taken out after dissection to determine the tumor weight, and the tumor inhibition rate (r) was calculated relative to the negative control group.

[3] = injection volume 20 ul, administration volume/tumor volume 0.09, 7th day
[4] = injection volume 50 ul, administration volume/tumor volume 0.23, 7th day
[5] = injection volume 100 ul, administration volume/tumor volume 0.47, 7th day

Structure (SMILES): CCO [75% ethanol, ethanol]
- Area of abnormal regions (necrosis, nodules) ([1]; dosed once into muscle 100 μl/mouse, 7th day (b197 experiment)): 32.24±13.71 mm^2
- Areas of the abnormal regions (necrosis, nodules) ([1]; injection into muscle 100 ul/mouse, 7th day (b168 experiment)): 35.14±15.92 mm^2
- Tumor inhibition rate r [2, 3]: 6.2%
- Tumor weight (x ± s) [2, 3]: 0.257 ± 0.110 g
- Tumor inhibition rate r [2, 4]: 20.3%
- Tumor weight (x ± s) [2, 4]: 0.218 ± 0.115 g
- Tumor inhibition rate r [2, 5]: 31.7%
- Tumor weight (x ± s) [2, 5]: 0.187 ± 0.064 g
